From patent EP0606747A1, “Tilmicosin and derivatives for treating gram-positive diseases of aquatic species” (ELI LILLY AND COMPANY, priority 1992, dated 1994) come the findings set out here.

A short description of data set [1]: Test 3: palatability and growth study in Atlantic salmon, tilmicosin base versus phosphate salt. It counts as in vivo, Atlantic salmon (Salmo salar). As to conditions: 800 mg/kg of diet (free base equivalent), four weeks; cause of death could not be determined. The protocol:
Test 3: Palatability and Growth Studies in Atlantic Salmon, Comparing Tilmicosin Base and Phosphate Salt
A trial was conducted to determine the palatability to Atlantic salmon (Salmo salar), St. John River strain, of diets containing either tilmicosin (free base) or tilmicosin phosphate. Pre-smolt salmon, each weighing about 50 grams, from a certified disease free stock, were used. The salmon, 30 per tank and 9 tanks, were acclimatized for about two weeks. During this period and throughout the trial, the tanks were maintained with fresh single-pass flow-through well water, 2 liters per minute, 12 ± 1°C., and the photoperiod was 12/12. During the acclimatization, all fish were fed a standard feed. Thereafter the salmon in three tanks continued to receive the standard diet, to serve as a control. The salmon in three other tanks received a modified diet containing 800 mg of tilmicosin (free base) per kilogram of diet; the salmon in the last three tanks received a modified diet containing tilmicosin phosphate in an amount equivalent to 800 mg of tilmicosin (free base) per kilogram of diet. […] The trial was continued for a four-week period, during which these parameters were evaluated: feed intake feed intake as % of body weight weight gain weight gain as % of body weight feed conversion All surviving fish were euthanized. […]

Data set [2] has as its system Renibacterium salmoninarum. Description: In vitro evaluation of tilmicosin against Renibacterium salmoninarum (MIC). The format is cell-based. The conditions noted are these: for MIC: Renibacterium salmoninarum, read-out: minimum inhibitory concentration (MIC). How it is done: Test 1: In vitro evaluation of tilmicosin against Renibacterium salmoninarum.
A dozen strains of Renibactenum salmoninarum were obtained and cultured in standard procedures. Eight grew successfully and were employed in the evaluation of tilmicosin.
Tilmicosin was evaluated at various concentrations and the minimum inhibitory concentration (MIC) determined for each of the strains. For three of the strains, the MIC was 1 µg/ml; for the remaining five strains, the MIC was 2 µg/ml.

The nature of data set [3]: Test 2: palatability and growth study in Atlantic salmon, medicated diets, four weeks. The format is in vivo, Atlantic salmon (Salmo salar). As to conditions: all fish at the end of the four-week study. The protocol:
Test 2: Palatability and growth studies in Atlantic salmon.
A trial was conducted to determine the palatability and effect on growth of Atlantic salmon (Salmo salar), St. John River strain, of diets containing various concentrations of tilmicosin. Pre-smolt salmon, each weighing about 50 grams, from a stock certified to be free of bacterial kidney disease, were used. The fish were acclimatized for four weeks. During this period, the fish were in tanks maintained with fresh single-pass flow-through well water, 10±2°C., and a photoperiod of 12/12. Water flow rate was adequate to provide a dissolved oxygen concentration of ≧ 5 mg/liter post feeding and under conditions of normal activity provided a dissolved oxygen concentration of ≧ 8 mg/liter. All fish were fed a standard diet. […]
All fish were fed 3× on weekdays and 1× or 2× on weekend days. […] The trial lasted four weeks, and the following parameters were determined: feed intake feed intake as % of body weight weight gain weight gain as % of body weight feed conversion At the end of the four weeks, the fish were sacrificed and tissue from liver, muscle, and kidney analyzed for tilmicosin by an HPLC assay. […] Quantitative determination of tilmicosin was accomplished by reversed-phase HPLC with a phenylsilyl stationary phase and a U.V. absorption detector at 280 nm. […]

Converted amounts (≈) assume the structure as drawn. Read-outs that look alike come from different tables or passages of the source.

Regarding tilmicosin phosphate, the mortality result in data set [1] is “One fish from the tank receiving tilmicosin phosphate died”.
Regarding `CC[C@H]1OC(=O)C[C@@H](O)[C@H](C)[C@@H](O[C@@H]2O[C@H](C)[C@@H](O)[C@H](N(C)C)[C@H]2O)[C@@H](CCN2C[C@H](C)C[C@H](C)C2)C[C@@H](C)C(=O)/C=C/C(C)=C/[C@@H]1CO[C@@H]1O[C@H](C)[C@@H](O)[C@@H](OC)[C@H]1OC` [tilmicosin], the MIC in data set [2] (remaining five of the eight strains) turned out to be 2 µg/mL (≈ 2.3 µM); in data set [2] (three of the eight strains), 1 µg/mL (≈ 1.15 µM). In addition, in data set [2] (lower concentrations down to 0.25 µg/ml), the growth result was “dramatic reduction in growth”. Moreover, in data set [3], the Post-mortem examination result is reported as “no gross abnormalities”.
